# Laboratory results published in PubChem BioAssay (NCI).
#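 These data come from cells grown in 96-well plates and exposed to compound for 48 hours at five concentrations. Definition used: TGI = concentration required for complete inhibition of growth.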
# Key:
# Assay in all cases: inhibition of tumour cell growth, NCI panel, 48 h
# [1] = tested on: NCI-H522 lung
# [2] = tested on: SNB-75 CNS
# [3] = tested on: SF-268 CNS
# [4] = tested on: HT29 colon
# [5] = tested on: MDA-N
# [6] = tested on: HCT-15 colon
# [7] = tested on: CCRF-CEM leukemia
# [8] = tested on: NCI-H23 lung
# [9] = tested on: SF-539 CNS
# [10] = tested on: HOP-62 NSCLC
# [11] = tested on: RPMI-8226 leukemia
# [12] = tested on: A549 NSCLC
# [13] = tested on: OVCAR-5 ovarian
# [14] = tested on: M14 melanoma
# [15] = tested on: EKVX NSCLC
# [16] = tested on: HL-60(TB) leukemia
# [17] = tested on: NCI-H226 lung
# [18] = tested on: A498 renal
# [19] = tested on: DU-145 prostate
# [20] = tested on: SF-295 CNS
# [21] = tested on: KM12 colon
# [22] = tested on: T-47D breast
# [23] = tested on: SR leukemia
# [24] = tested on: HS 578T breast
# [25] = tested on: HOP-92 NSCLC
# [26] = tested on: ACHN renal
# [27] = tested on: MCF7 breast
# [28] = tested on: SN12C renal
# [29] = tested on: HCC-2998 colon
# [30] = tested on: HCT-116 colon
# [31] = tested on: SK-MEL-2 melanoma
# [32] = tested on: OVCAR-8 ovarian
# [33] = tested on: COLO 205 colon
# [34] = tested on: U251 CNS
# [35] = tested on: SW-620 colon
# [36] = tested on: LOX IMVI melanoma
# [37] = tested on: SNB-19 CNS
# [38] = tested on: MDA-MB-435
# [39] = tested on: CAKI-1 renal
# [40] = tested on: SK-MEL-5 melanoma
# [41] = tested on: OVCAR-3 ovarian
# [42] = tested on: 786-0 renal
# [43] = tested on: TK-10 renal
# [44] = tested on: SK-OV-3 ovarian
# [45] = tested on: OVCAR-4 ovarian
# [46] = tested on: NCI/ADR-RES ovarian
# [47] = tested on: PC-3 prostate
# [48] = tested on: SK-MEL-28 melanoma
# [49] = tested on: K-562 leukemia
# [50] = tested on: NCI-H460 lung
# [51] = tested on: IGROV1 ovarian
# [52] = tested on: UO-31 renal
# [53] = tested on: MDA-MB-231 breast
# [54] = tested on: UACC-62 melanoma
# [55] = tested on: MOLT-4 leukemia
# [56] = tested on: RXF 393 renal
# [57] = tested on: UACC-257 melanoma
# [58] = tested on: MALME-3M melanoma
smiles,measurement,setting,value
CCc1cc(-c2nsc(=O)o2)c(S(=O)(=O)CC)s1,TGI,[1],57.2 µM
same,TGI,[2],> 100 µM
same,TGI,[3],> 100 µM
same,TGI,[4],> 100 µM
same,TGI,[5],> 100 µM
same,TGI,[6],> 100 µM
same,TGI,[7],> 100 µM
same,TGI,[8],> 100 µM
same,TGI,[9],> 100 µM
same,TGI,[10],> 100 µM
same,TGI,[11],> 100 µM
same,TGI,[12],> 100 µM
same,TGI,[13],> 100 µM
same,TGI,[14],> 100 µM
same,TGI,[15],> 100 µM
same,TGI,[16],12 µM
same,TGI,[17],> 100 µM
same,TGI,[18],> 100 µM
same,TGI,[19],> 100 µM
same,TGI,[20],> 100 µM
same,TGI,[21],> 100 µM
same,TGI,[22],> 100 µM
same,TGI,[23],> 100 µM
same,TGI,[24],> 100 µM
same,TGI,[25],> 100 µM
same,TGI,[26],> 100 µM
same,TGI,[27],> 100 µM
same,TGI,[28],> 100 µM
same,TGI,[29],> 100 µM
same,TGI,[30],> 100 µM
same,TGI,[31],> 100 µM
same,TGI,[32],> 100 µM
same,TGI,[33],> 100 µM
same,TGI,[34],> 100 µM
same,TGI,[35],> 100 µM
same,TGI,[36],> 100 µM
same,TGI,[37],> 100 µM
same,TGI,[38],> 100 µM
same,TGI,[39],> 100 µM
same,TGI,[40],> 100 µM
same,TGI,[41],> 100 µM
same,TGI,[42],> 100 µM
same,TGI,[43],> 100 µM
same,TGI,[44],> 100 µM
same,TGI,[45],> 100 µM
same,TGI,[46],> 100 µM
same,TGI,[47],85.1 µM
same,TGI,[48],> 100 µM
same,TGI,[49],> 100 µM
same,TGI,[50],> 100 µM
same,TGI,[51],> 100 µM
same,TGI,[52],> 100 µM
CCCCCCCCCCCCCCCCC1=CC(=O)C=C(OC)C1=O,TGI,[1],> 100 µM
same,TGI,[2],> 100 µM
same,TGI,[3],> 100 µM
same,TGI,[4],> 100 µM
same,TGI,[5],> 100 µM
same,TGI,[6],> 100 µM
same,TGI,[7],> 100 µM
same,TGI,[8],> 100 µM
same,TGI,[53],> 100 µM
same,TGI,[54],> 100 µM
same,TGI,[9],> 100 µM
same,TGI,[10],> 100 µM
same,TGI,[11],> 100 µM
same,TGI,[12],> 100 µM
same,TGI,[13],> 100 µM
same,TGI,[14],> 100 µM
same,TGI,[15],> 100 µM
same,TGI,[16],> 100 µM
same,TGI,[17],> 100 µM
same,TGI,[18],> 100 µM
same,TGI,[19],> 100 µM
same,TGI,[20],> 100 µM
same,TGI,[21],> 100 µM
same,TGI,[23],92.7 µM
same,TGI,[24],> 100 µM
same,TGI,[25],> 100 µM
same,TGI,[26],> 100 µM
same,TGI,[27],> 100 µM
same,TGI,[28],> 100 µM
same,TGI,[29],> 100 µM
same,TGI,[30],> 100 µM
same,TGI,[31],> 100 µM
same,TGI,[32],> 100 µM
same,TGI,[33],> 100 µM
same,TGI,[34],93.8 µM
same,TGI,[35],> 100 µM
same,TGI,[36],> 100 µM
same,TGI,[37],> 100 µM
same,TGI,[38],> 100 µM
same,TGI,[39],> 100 µM
same,TGI,[40],> 100 µM
same,TGI,[41],> 100 µM
same,TGI,[55],> 100 µM
same,TGI,[42],> 100 µM
same,TGI,[43],> 100 µM
same,TGI,[44],> 100 µM
same,TGI,[56],> 100 µM
same,TGI,[45],> 100 µM
same,TGI,[57],> 100 µM
same,TGI,[46],> 100 µM
same,TGI,[47],> 100 µM
same,TGI,[48],> 100 µM
same,TGI,[49],> 100 µM
same,TGI,[50],> 100 µM
same,TGI,[51],> 100 µM
same,TGI,[58],> 100 µM
same,TGI,[52],> 100 µM
